The term IC50 denotes the concentration at which inhibition is half-maximal. Read a low IC50 as greater potency.

Type in all cases: cell-based
In experiment [1] the test system is HUV-EC-C cells (human umbilical vein endothelial cells). Briefly: HUV-EC-C Assay, VEGF-stimulated [3H] thymidine incorporation. The conditions noted are these: Mitogenesis in Endothelial Cells. On the technique in general: Uptake of a labelled nucleoside into DNA is a usual measure of proliferation.
Experiment [2] has the same test system. Briefly: HUV-EC-C Assay, a-FGF (ECGF)-stimulated [3H] thymidine incorporation. To be noted: Mitogenesis in Endothelial Cells. The procedure:
The following protocol may also be used to measure the composition's activity:
1. […] After cells have detached from the flask, add an equal volume of assay medium and transfer to a 50 ml sterile centrifuge tube (Fisher Scientific; catalogue no. 05-539-6).
2. Wash the cells with about 35 ml assay medium in the 50 ml sterile centrifuge, tube by adding the assay medium, centrifuge for 10 minutes at approximately 200× g, aspirate the supernatant, and resuspend with 35 ml D-PBS. Repeat the wash two more times with D-PBS, resuspend the cells in about 1 ml assay medium/15 cm^2 of tissue culture flask. Assay medium consists of F12K medium (Gibco BRL; catalogue no. 21127-014)+0.5% heat-inactivated fetal bovine serum. Count the cells with a Coulter Counter.RTM.v Coulter Electronics, Inc.) and add assay medium to the cells to obtain a concentration of 0.8-1.0×10^5 cells/ml.
3. Add cells to 96-well flat-bottom plates at 100 μl/well or 0.8-1.0×10^4 cells/well; incubate about 24 h at 37° C., 5% CO2.
1. Make up two-fold drug titrations in separate 96-well plates, generally 50 μM on down to 0 μM. Use the same assay medium as mentioned in day 0, step 2 above. Titrations are made by adding […] of drug at 200 μM (4× the final well concentration) to the top well of a particular plate column. Since the stock drug concentration is usually 20 mM in DMSO, the 200 μM drug concentration contains 2% DMSO. Therefore, diluent made up to 2% DMSO in assay medium (F12K+0.5% fetal bovine serum) is used as diluent for the drug titrations in order to dilute the drug but keep the DMSO concentration constant. Add this diluent to the remaining wells in the column at 60 μl/well. Take 60 μl from the 120 μl of 200 μM drug dilution in the top well of the column and mix with the 60 μl in the second well of the column. Take 60 μl from this well and mix with the 60 μl in the third well of the column, and so on until two-fold titrations are completed. When the next-to-the-last well is mixed, take 60 μl of the 120 μl in this well and discard it. Leave the last well with 60 μl of DMSO/media diluent as a non-drug-containing control. Make 9 columns of titrated drug, enough for triplicate wells each for 1) VEGF (obtained from Pepro Tech Inc., catalogue no. 100-200, 2) endothelial cell growth factor (ECGF) (also known as acidic fibroblast growth factor, or aFGF) (obtained from Boehringer Mannheim Biochemica, catalogue no. 1439 600), and assay media control. ECGF comes as a preparation with sodium heparin.
2. Transfer 50 μl/well of the drug dilutions to the 96-well assay plates containing the 0.8-1.0×10^4 cells/100 μl/well of the HUV-EC-C cells from day 0 and […] incubate ~2 h at 37° C., 5% CO2.
3. In triplicate, add 50 μl/well of 80 ng/ml VEGF, 20 ng/ml ECGF, or media control to each drug condition. As with the drugs, the growth factor concentrations are 4× the desired final concentration. Use the assay media from day 0 step 2 to make the concentrations of growth factors. Incubate approximately 24 hours at 37° C., 5% CO2. Each well will have 50 μl drug dilution, 50 μl growth factor or media, and 100 ul cells,=200 ul/well total. Thus the 4× concentrations of drugs and growth factors become 1× once everything has been added to the wells.
1. Add ^3H-thymidine (Amersham; catalogue no. TRK-686) at 1 μCi/well (10 μl/well of 100 μCi/ml solution made up in RPMI media+10% heat-inactivated fetal bovine serum) and incubate about 24 h at 37° C., 5% CO2.
Note: ^3H-thymidine is made up in RPMI media because all of the other applications for which we use the ^3H-thymidine involve experiments done in RPMI. The media difference at this step is probably not significant. RPMI was obtained from Gibco BRL, catalogue no. 11875-051.
1. Freeze plates overnight at −20° C.
1. Thaw plates and harvest with a 96-well plate harvester (Tomtec Harvester 96.RTM.) onto filter mats (Wallac; catalogue no. 1205-401); read counts on a Wallac Betaplate™ liquid scintillation counter.

Experiment [3] concerns FGFR. Briefly: FGF ligand-induced BrdU incorporation, mitogenesis in 3T3/EGFR cells.

Consider `COc1cccc(C=C2C(=O)Nc3ccccc32)c1OC` [SU4794, 3-(2,3-dimethoxybenzylidenyl)-2-indolinone], for which the concentration for half-maximal inhibition (IC50) came out at 4.8 µM in experiment [1] (Homo sapiens, HUVEC) and 35.7 µM in experiment [2] (Homo sapiens, HUVEC).

Regarding `COc1ccc(Br)cc1C=C1C(=O)Nc2ccccc21` [SU4796, 3-(3-bromo-6-methoxybenzylidenyl)-2-indolinone], the half-maximal inhibitory concentration (IC50) in experiment [1] is 30.7 µM; in experiment [2] it was 35.8 µM.

In the case of `O=C1Nc2ccccc2C1=Cc1ccco1` [SU4798, 3-[(furan-2-yl)methylene]-2-indolinone], the IC50 in experiment [1] (Homo sapiens, HUVEC) came to 43.2 µM.

For `CC(=O)Nc1ccc(C=C2C(=O)Nc3ccccc32)cc1` [SU4799, 3-(4-acetamidobenzylidenyl)-2-indolinone], the IC50 in experiment [1] (Homo sapiens, HUVEC) was 19.9 µM. This IC50 lies about 2.2-fold lower than the previous one.

For `COc1ccccc1C=C1C(=O)Nc2ccccc21` [SU4949, 3-(2-Methoxybenzylidenyl)-2-indolinone], the IC50 in experiment [1] worked out at 3.4 µM; in experiment [2], 3.7 µM.

`CN(C)c1ccc(C=C2C(=O)N(C)c3ccccc32)cc1` [SU4952, 3-(4-Dimethylaminobenzylidenyl)-1-methyl-2-indolinone]: the IC50 in experiment [1] (Homo sapiens, HUVEC) amounted to 25.6 µM; in experiment [2] (Homo sapiens, HUVEC), 19.3 µM.

In experiment [2], `O=C1Nc2ccc(Cl)cc2C1=Cc1ccc(Br)cc1` [SU4972, 3-(4-Bromobenzylidenyl)-5-chloro-2-indolinone] gave an IC50 of 1.4 µM.

For `CCCCN(CCCC)c1ccc(C=C2C(=O)Nc3ccccc32)cc1` [SU4979, 3-(4-Di-n-butylaminobenzylidenyl)-2-indolinone], the IC50 in experiment [1] (Homo sapiens, HUVEC) was 4.4 µM; in experiment [2] (Homo sapiens, HUVEC), 4.9 µM.

Consider `O=C1Nc2ccccc2C1=Cc1ccc(Cl)c(Cl)c1` [SU5201, 3-(3,4-Dichlorobenzylidenyl)-2-indolinone], for which the values for the IC50 in experiment [1] and in experiment [2] were 2.5 µM and 2.3 µM, respectively.

Turning to `O=C1Nc2ccccc2C1=Cc1ccc(F)cc1` [SU5205, 3-(4-Fluorobenzylidenyl)-2-indolinone], the IC50 is 5.1 µM in experiment [1] (Homo sapiens, HUVEC) and 11.8 µM in experiment [2] (Homo sapiens, HUVEC).

Consider `O=C1Nc2ccccc2C1=Cc1cccs1` [SU5208, 3-[(Thien-2-yl)methylene]-2-indolinone], for which the IC50 turned out to be 2.9 µM in experiment [1] (Homo sapiens, HUVEC) and 130 µM in experiment [2] (Homo sapiens, HUVEC).

In the case of `O=C1Nc2ccccc2C1=Cc1ccc(-c2cc(C(F)(F)F)cc(C(F)(F)F)c2)o1` [SU5217], the IC50 came out at 9.6 µM in experiment [1] and 10.5 µM in experiment [2].

In the case of `CN(C)c1c(C=C2C(=O)Nc3ccccc32)cc(C=C2C(=O)Nc3ccccc32)c(N(C)C)c1C#N` [SU5218, 2,6-Di-(dimethylamino)-3,5-di-[(indolin-2-one-3-ylidenyl)methyl]-phenylcyanide], the half-inhibitory concentration (IC50) in experiment [1] (Homo sapiens, HUVEC) was determined as 2.4 µM; in experiment [2] (Homo sapiens, HUVEC), 2.7 µM.

As to `Cc1c(C=O)[nH]c(C=C2C(=O)Nc3ccccc32)c1C` [SU5405, 3-[(3,4-Dimethyl-2-formylpyrrole-5-yl)methylene)-2-indolinone], the IC50 in experiment [1] (Homo sapiens, HUVEC) was found to be 0.9 µM; in experiment [2] (Homo sapiens, HUVEC) it was 0.6 µM.

In experiment [1] (Homo sapiens, HUVEC), `Cc1c[nH]c(C=C2C(=O)Nc3ccccc32)c1C` [SU5406, 3-[(3,4-Dimethylpyrrol-2-yl)methylene]-2-indolinone] displayed an IC50 of under 0.8 µM.

In the case of `CCOC(=O)c1c(C)[nH]c(C=C2C(=O)Nc3ccccc32)c1C` [SU5408, 3-[(2,4-Dimethyl-3-ethoxycarbonylpyrrol-5-yl)methylene]-2-indolinone], the IC50 in experiment [1] (Homo sapiens, HUVEC) is under 0.8 µM; in experiment [2] (Homo sapiens, HUVEC), 22.7 µM.

In the case of `O=C1Nc2ccccc2C1=Cc1ccc(I)o1` [SU5409], in experiment [1], the 50% inhibitory concentration (IC50) was 26 µM.

For the compound `O=C1Nc2ccccc2C1=Cc1sccc1Br` [SU5418, 3-[(3-Bromothiene-2-yl)methylene]-2-indolinone], the IC50 stood at 13.6 µM in experiment [1] (Homo sapiens, HUVEC) and 40 µM in experiment [2] (Homo sapiens, HUVEC).

In experiment [1] (Homo sapiens, HUVEC), `CSc1ccc(C=C2C(=O)Nc3ccccc32)s1` [SU5419, 3-[(2-Methylmercaptothien-5-yl)methylene]-2-indolinone] registered an IC50 of 0.7 µM. In other words, the sub-micromolar range.

In experiment [1] (Homo sapiens, HUVEC), `Cc1cc(C=C2C(=O)Nc3ccccc32)oc1C` [SU5421, 3-[(2,3-Dimethylfuran-5-yl)methylene]-2-indolinone] gave an IC50 of 11.4 µM.

As for `O=C1Nc2ccccc2C1=Cc1ccco1` [SU5429, 3-[(Furan-2-yl)methylene]-2-indolinone], the IC50 in experiment [1] (Homo sapiens, HUVEC) turned out to be 27.6 µM.

For the compound `O=C1Nc2ccccc2C1=Cc1ccc([N+](=O)[O-])o1` [SU5432, 3-[(2-Nitrofuran-5-yl)methylene]-2-indolinone], the IC50 is 0.16 µM in experiment [1] (Homo sapiens, HUVEC) and 0.14 µM in experiment [2] (Homo sapiens, HUVEC).

`O=C1Nc2ccccc2C1=Cc1ccc(Br)o1` [SU5438, 3-[(5-Bromofuran-2-yl)methylene]-2-indolinone]: the IC50 in experiment [1] (Homo sapiens, HUVEC) came to 39.8 µM; in experiment [2] (Homo sapiens, HUVEC) it was 33 µM.

Regarding `CCc1ccc(C=C2C(=O)Nc3ccccc32)s1` [SU5451, 3-[(2-Ethylthien-5-yl)methylene]-2-indolinone], the IC50 in experiment [1] (Homo sapiens, HUVEC) came to 1.2 µM; in experiment [2] (Homo sapiens, HUVEC) it was 30 µM.

Take `CCOC(=O)CCc1c(C(=O)OCC)[nH]c(C=C2C(=O)Nc3ccccc32)c1CC(=O)OCC` [SU5454, 3-[(5-Ethoxycarbonyl-4-ethoxycarbonylethyl-3-ethoxycarbonylmethylpyrrol-2-yl)methylene]-2-indolinone]: the IC50 in experiment [1] (Homo sapiens, HUVEC) turned out to be 3.8 µM; in experiment [2] (Homo sapiens, HUVEC), 3.4 µM.

As for `CCc1c(C=C2C(=O)Nc3ccccc32)[nH]c(C(=O)O)c1C` [SU5455, 3-[(5-Carboxy-3-ethyl-4-methylpyrrol-2-yl)methylene]-2-indolinone], the IC50 in experiment [1] (Homo sapiens, HUVEC) came out at 20 µM; in experiment [2] (Homo sapiens, HUVEC) it was 20 µM.

`O=C1Nc2ccccc2C1=Cc1cccn1-c1cc(Cl)cc(Cl)c1` [SU5461, 3-{[1-(3,5-Dichlorophenyl)pyrrol-2-yl]methylene}-2-indolinone]: the IC50 in experiment [1] (Homo sapiens, HUVEC) was under 0.07 µM; in experiment [2] (Homo sapiens, HUVEC), under 0.07 µM.

With `O=C1Nc2ccccc2C1=Cc1cccn1-c1ccc(Cl)cc1` [SU5462], the IC50 in experiment [1] is 0.5 µM; in experiment [2] it was 0.8 µM.

For the compound `CCOC(=O)c1c[nH]c(C=C2C(=O)Nc3ccccc32)c1C` [SU5463], the IC50 came to 0.14 µM in experiment [1] (Homo sapiens, HUVEC) and 7.9 µM in experiment [2] (Homo sapiens, HUVEC).

For the compound `Cn1cccc1C=C1C(=O)Nc2ccccc21` [SU5464, 3-[(1-Methylpyrrol-2-yl)methylene]-2-indolinone], the IC50 in experiment [1] (Homo sapiens, HUVEC) turned out to be 3.8 µM; in experiment [2] (Homo sapiens, HUVEC) it was 12.9 µM.

As for `CCOC(=O)CCc1c(C=C2C(=O)Nc3ccccc32)[nH]c(C(=O)OCC)c1CC(=O)OCC` [SU5465, 3-[(5-Ethoxycarbonyl-3-ethoxycarbonylethyl-4-ethoxylcarbonylmethylpyrrol-2-yl)methylene]-2-indolinone], in experiment [3], 25 µM corresponded to half-maximal inhibition (IC50). This lies in the double-digit micromolar range.

For `Cc1cnc(C=C2C(=O)Nc3ccccc32)[nH]1` [SU5468, 3-[(5-Methylimidazol-2-yl)methylene]-2-indolinone], the IC50 in experiment [1] (Homo sapiens, HUVEC) is 0.54 µM; in experiment [2] (Homo sapiens, HUVEC), 8.7 µM.

`Cc1cnc(C=C2C(=O)Nc3ccccc32)s1` [SU5469, 3-[(5-Methylthiazol-2-yl)methylene]-2-indolinone]: in experiment [3], it took 15 µM to reach half-maximal inhibition (IC50).

As for `Cc1cc(C=C2C(=O)Nc3ccccc32)[nH]n1` [SU5472, 3-[(3-Methylpyrazol-5-yl)methylene]-2-indolinone], the half-inhibitory concentration (IC50) in experiment [1] (Homo sapiens, HUVEC) was found to be 2 µM; in experiment [2] (Homo sapiens, HUVEC) it was 5 µM.

In the case of `CCc1c(C)[nH]c(C=C2C(=O)Nc3ccccc32)c1C` [SU5477, 3-[(4-Ethyl-3,5-dimethylpyrrol-2-yl)methylene]-2-indolinone], the IC50 in experiment [1] (Homo sapiens, HUVEC) worked out at 0.05 µM; in experiment [2] (Homo sapiens, HUVEC) it was 37.8 µM.

These data come from patent publication US20030119895A1, “Methods using a combination of a 3-heteroaryl-2-indolinone and a cyclooxygenase-2 inhibitor for the treatment of neoplasia” (Pharmacia Corporation, priority 1998, published 2003).
